Assay results as given in a melting point compilation (Tetko et al.; mined from patent text by program, amines drawn as free bases though some values may be those of a salt).

| Structure (SMILES) | melting point [°C] |
| --- | --- |
| COc1cc2c(cc1Nc1ncc(Cl)c(Nc3ccc(N4CCOCC4)cc3)n1)CCN(CC(=O)N(C)C)CC2 | 227 to 242 |
| O=C(O)Cc1onc(O)c1Cl | 155 |
| CC(C)(CSc1ccc(Cl)cc1)C(=O)C(Oc1ccc(Cl)cc1)n1cncn1 (stereo not given) | 115 |
| CN(C)C(c1cccs1)C1CCC(=NO)CC1 (stereo not given) | 118 to 121 |
| CC(C)(C)OC(=O)N1CC(CC=O)C1 | 52 to 54 |
| Cc1cc(C[C@H](N)[C@H](O)c2ccc(F)cc2)cc(OC(F)(F)C(F)F)c1 (racemic) | 96 to 98 |
| CCCCCCCCCCCCCCCCCCOc1cc(NC(=O)OCc2ccccc2)cc(OC(C)=O)c1 | 57 to 59 |
| O=Cc1c[nH]c2ccc(-c3ccc4[nH]cnc4c3)cc12 | > 280 |
| COC(=O)c1ccc(N2CCCC2=O)c(N)c1 | 136 to 138 |
| CNC(=O)c1cc(-n2cnn(Cc3ccc(F)cc3)c2=O)n[nH]1 | 268 to 269 |
| CCOC(=O)N1CCN(CCNc2ncnc3c2sc2nc(-c4ccoc4)c4c(c23)CC(C)(C)CC4)CC1 | 85.1 to 86.4 |
| C=CCNc1nc(NC(C)C)c2scc(C)c2n1 | 106 to 107 |
| CCOC(=O)C(O)=CC(=O)c1c[nH]c2ccccc12 | > 300 |
| CC1(c2nc(NC3CC3)nc(N3CCOCC3)n2)CC1 | 94 to 95 |
| CC(C)(C)c1cc(CCc2ccccc2NC(=O)NC2CCN(Cc3cc(F)cc(F)c3)CC2)cc(C(C)(C)C)c1O | 119 to 120 |
| CCC/C(=C\C=C\C(=O)Oc1ccc([N+](=O)[O-])cc1)c1ccc(OC)cc1 | 90 to 92 |
| COc1ccc2c(c1)c(C)cn2CCCCCC(=O)O | 134 to 137 |
| CC[C@H](C)C(OCc1ccccc1)[C@H]1[C@H]([N+](=O)[O-])[C@H](c2ccsc2)N[C@@H]1C(=O)NCCC(=O)O (stereo not given in full) | 145 to 146 |
| CNC(=O)NC1=NC(=CCC(=O)Nc2ccc(Cl)cc2)CS1 | 203 to 205 |
| CCc1c(O)cc(O)c(C(=O)c2ccccc2)c1CC(=O)N1CCN(c2ccccc2C#N)C(=O)C1 | 259 to 261 |
| O=C(NCCc1ccc([N+](=O)[O-])cc1)Nc1ccc(Nc2ccccc2)cc1 | 204 to 205 |
| CCCCOCCOc1ccc(-c2ccc3c(c2)C=C(C(=O)Nc2ccc(C/C(=N\O)c4nccn4CCC)cc2)CCN3CC(C)C)cc1 | 166 to 168 |
| O=S(=O)(N[C@H](CO)[C@@H](c1ccccc1)C(F)(F)F)c1ccc(Cl)cc1 | 129 to 131 |
| Nc1cccc(CNC(=O)c2[nH]c3ccc(Cl)cc3c2S(=O)(=O)c2ccccc2)c1 | 247 to 249 |
| OC(c1ccc2cc(-c3n[nH]c4ccsc34)[nH]c2c1)(C1CC1)C1CC1 | 110 to 112 |

| Structure (SMILES) | melting point [°C] |
| --- | --- |
| Cn1cc(OC(=O)c2ccccc2)c(=O)c2cccc(F)c21 | 179 to 181 |
| COC(=O)CSc1nc(N)c(C=O)nc1Cl | 103 to 104 |
| Cn1nnc2c(N3CCOCC3)nc(-c3ccc(NC(=O)Nc4cccs4)cc3)nc21 | 182 |
| Cn1c(=O)n(-c2ccnc(N)c2)c2ccccc21 | 204 to 205 |
| Cc1nc2cc(S(=O)(=O)n3c(CCCC(=O)O)cc4nc(Cl)ccc43)ccc2s1 | 173 |
| Cn1c2nc3ccccc3nc2c2cccc(CO)c21 | 237 to 238 |
| CCC(COC)n1cc(Cl)nc(N2CCc3cc(OC)c(F)c(Cl)c32)c1=O (stereo not given) | 140 to 142 |
| CC(=O)OCC1=C(C(=O)OC(c2ccccc2)c2ccccc2)N2C(=O)C(NC(=O)Cc3csc(-c4ncccc4O)n3)C2SC1 (stereo not given) | 176 to 178 |
| COCn1c(C)nc2nc(O)cnc2c1=O | 224 to 226 |
| ON=Cc1ccc(Cl)c(I)c1 | 97 to 99 |
| CN1C(=O)CC[C@]2(C)c3ccc(-c4cc5ccccc5s4)cc3CC[C@@H]12 | 247 to 250 |
| O=Cc1c(O)ccc2ncccc12 | 136 to 137 |
| N#Cc1cccc(NC(C(=O)O)c2ccccc2)c1 (stereo not given) | 159 to 162 |
| COc1ccc(C2=C(C#N)C(c3cccc4nsnc34)c3c[nH]nc3N2)cc1 (stereo not given) | 238 |
| O=C(NCCCCCCCCc1ccccc1)c1cc(-c2cccc(C(F)(F)F)c2)cc(-c2cccc(C(F)(F)F)c2OCCCCc2nnn[nH]2)c1 | 145 to 151 |
| O=C(C=Cc1ccc(F)cc1)C1CCCCC1 | 44 to 46 |
| NCCCC(=O)NCCS(=O)(=O)O | 247 |
| CCOC(=O)CCN1CCC(OC(c2ccccc2)c2ccc(C)cc2)CC1 (stereo not given) | 101 to 104 |
| OCC1OC(n2c(SCc3ccccc3)nc3cc(Cl)c(Cl)cc32)C(O)C1O (stereo not given) | 196 to 198 |
| CC(=O)NC(=Cc1c[nH]c2cc(Cl)ccc12)C(=O)O | 225 |
| COC(=O)c1cc(N=Nc2ccc(S(=O)(=O)Cl)cc2)ccc1O | 137 to 138 |
| O=c1c(C2CCCC2)coc2cc(O)cc(Cl)c12 | 282 to 284 |
| OCc1coc(Cc2ccc(F)cc2)c1 | 45 to 47 |
| CCn1cnc(N2CCc3ccccc3CC2)c(C#N)c1=O | 138 to 140 |
| Cc1ccc(S(=O)(=O)N=CNCc2ccc(-c3csc(N=C(N)N)n3)o2)cc1 | 141 to 142 |
